Patent US20260262643A1, “HERBICIDAL BENZOXAZINES” (FMC CORPORATION, priority 2022, published 2026)

Legend:
blackgrass [1] = assay: Test A preemergence; format: in vivo, Alopecurus myosuroides
Procedure, shortened: (§1)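 Visual injury ratings on a 0–100 scale (100 = complete control) versus untreated controls, taken 10 days after treatment in greenhouse. Preemergence: directed soil spray onto seeded loam/sand. Postemergence: foliar application at one- to two-leaf stage, plants 2–10 cm. Formulation: non-phytotoxic solvent plus surfactant.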

corn [2] = assay: Test A preemergence; format: in vivo, Zea mays
Procedure, shortened: as §1

foxtail, giant [3] = assay: Test A preemergence; format: in vivo, Setaria faberi
Procedure, shortened: as §1

goosegrass [4] = assay: Test A preemergence; format: in vivo, Eleusine indica
Procedure, shortened: as §1

kochia [5] = assay: Test A preemergence; format: in vivo, Bassia scoparia
Procedure, shortened: as §1

oat, wild [6] = assay: Test A preemergence; format: in vivo, Avena fatua
Procedure, shortened: as §1

pigweed, palmer [7] = assay: Test A preemergence; format: in vivo, Amaranthus palmeri
Procedure, shortened: as §1

ragweed [8] = assay: Test A preemergence; format: in vivo, Ambrosia artemisiifolia
Procedure, shortened: as §1

ryegrass, Italian [9] = assay: Test A preemergence; format: in vivo, Lolium multiflorum
Procedure, shortened: as §1

soybean [10] = assay: Test A preemergence; format: in vivo, Glycine max
Procedure, shortened: as §1

wheat [11] = assay: Test A preemergence; format: in vivo, Triticum aestivum
Procedure, shortened: as §1

blackgrass [12] = assay: Test A postemergence; format: in vivo, Alopecurus myosuroides; details: postemergence, 10 days; for Plant response rating, Blackgrass: visual injury
Procedure, shortened: as §1

corn [13] = assay: Test A postemergence; format: in vivo, Zea mays; details: postemergence, 10 days; for Plant response rating, Corn: visual injury
Procedure, shortened: as §1

foxtail, giant [14] = assay: Test A postemergence; format: in vivo, Setaria faberi; details: postemergence, 10 days; for Plant response rating, Foxtail, Giant: visual injury
Procedure, shortened: as §1

goosegrass [15] = assay: Test A postemergence; format: in vivo, Eleusine indica; details: postemergence, 10 days; for Plant response rating, Goosegrass: visual injury
Procedure, shortened: as §1

kochia [16] = assay: Test A postemergence; format: in vivo, Bassia scoparia; details: postemergence, 10 days; for Plant response rating, Kochia: visual injury
Procedure, shortened: as §1

oat, wild [17] = assay: Test A postemergence; format: in vivo, Avena fatua; details: postemergence, 10 days; for Plant response rating, Oat, Wild: visual injury
Procedure, shortened: as §1

pigweed, palmer [18] = assay: Test A postemergence; format: in vivo, Amaranthus palmeri; details: postemergence, 10 days; for Plant response rating, Pigweed, Palmer: visual injury
Procedure, shortened: as §1

ragweed [19] = assay: Test A postemergence; format: in vivo, Ambrosia artemisiifolia; details: postemergence, 10 days; for Plant response rating, Ragweed: visual injury
Procedure, shortened: as §1

ryegrass, Italian [20] = assay: Test A postemergence; format: in vivo, Lolium multiflorum; details: postemergence, 10 days; for Plant response rating, Ryegrass, Italian: visual injury
Procedure, shortened: as §1

soybean [21] = assay: Test A postemergence; format: in vivo, Glycine max; details: postemergence, 10 days; for Plant response rating, Soybean: visual injury
Procedure, shortened: as §1

wheat [22] = assay: Test A postemergence; format: in vivo, Triticum aestivum; details: postemergence, 10 days; for Plant response rating, Wheat: visual injury
Procedure, shortened: as §1

horseweed = assay: Test A postemergence; format: in vivo, Erigeron canadensis; details: postemergence, 10 days; for Plant response rating, Horseweed: visual injury
Procedure, shortened: as §1

barnyardgrass = assay: Test B flooded paddy test; format: in vivo, Echinochloa crus-galli; details: 250 g ai/ha, Flood, 13 days, 0 to 100 scale (0 no effect, 100 complete control)
Procedure, shortened: (§2)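 Each species was raised to the 2-leaf stage. At treatment, each pot received floodwater 3 cm deep, with the chemical delivered into the water. Greenhouse holding followed for 13 days, then percent control was estimated visually versus untreated pots.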

ducksalad = assay: Test B flooded paddy test; format: in vivo, Heteranthera limosa; details: 250 g ai/ha, Flood, 13 days, 0 to 100 scale (0 no effect, 100 complete control)
Procedure, shortened: as §2

rice = assay: Test B flooded paddy test; format: in vivo, Oryza sativa; details: 250 g ai/ha, Flood, 13 days, 0 to 100 scale (0 no effect, 100 complete control)
Procedure, shortened: as §2

sedge, umbrella = assay: Test B flooded paddy test; format: in vivo, Cyperus difformis; details: 250 g ai/ha, Flood, 13 days, 0 to 100 scale (0 no effect, 100 complete control)
Procedure, shortened: as §2

[23] = 125 g ai/ha, visual injury after 10 days, 0 to 100 scale, 0 is no effect, 100 is complete control
[24] = 500 g ai/ha, 0 to 100 scale (0 no effect, 100 complete control), 10 days
[25] = 125 g ai/ha, 0 to 100 scale, 0 no effect, 100 complete control
[26] = 500 g ai/ha, 0 to 100 scale (0 no effect, 100 complete control)
[27] = 31 g ai/ha, 0 to 100 scale (0 no effect, 100 complete control)
[28] = 125 g ai/ha, 0 to 100 scale (0 no effect, 100 complete control)

C[C@H]1CN(C(=O)c2cccc(-n3cnc(Br)n3)c2)c2cccc(Cl)c2O1 [Compound 85]
Plant response rating, Blackgrass (blackgrass [1]; [23]): 0 | Plant response rating, Blackgrass (blackgrass [1]; [24]): 30 | Plant response rating, Corn (corn [2]; [23]): 0 | Plant response rating, Corn (corn [2]; [24]): 0 | Plant response rating, Foxtail, Giant (foxtail, giant [3]; [23]): 30 | Plant response rating, Foxtail, Giant (foxtail, giant [3]; [24]): 90 | Plant response rating, Goosegrass (goosegrass [4]; [23]): 80 | Plant response rating, Goosegrass (goosegrass [4]; [24]): 100 | Plant response rating, Kochia (kochia [5]; [23]): 20 | Plant response rating, Kochia (kochia [5]; [24]): 80 | Plant response rating, Oat, Wild (oat, wild [6]; [23]): 0 | Plant response rating, Oat, Wild (oat, wild [6]; [24]): 10 | Plant response rating, Pigweed, Palmer (pigweed, palmer [7]; [23]): 70 | Plant response rating, Pigweed, Palmer (pigweed, palmer [7]; [24]): 60 | Plant response rating, Ragweed (ragweed [8]; [23]): 0 | Plant response rating, Ragweed (ragweed [8]; [24]): 0 | Plant response rating, Ryegrass, Italian (ryegrass, Italian [9]; [23]): 90 | Plant response rating, Ryegrass, Italian (ryegrass, Italian [9]; [24]): 90 | Plant response rating, Soybean (soybean [10]; [23]): 0 | Plant response rating, Soybean (soybean [10]; [24]): 0 | Plant response rating, Wheat (wheat [11]; [23]): 0 | Plant response rating, Wheat (wheat [11]; [24]): 0 | Blackgrass plant response rating (blackgrass [12]; [25]): 30 | Plant response rating, Blackgrass (blackgrass [12]; [26]): 50 | Corn plant response rating (corn [13]; [25]): 10 | Plant response rating, Corn (corn [13]; [26]): 10 | Foxtail, Giant plant response rating (foxtail, giant [14]; [25]): 20 | Plant response rating, Foxtail, Giant (foxtail, giant [14]; [26]): 40 | Goosegrass plant response rating (goosegrass [15]; [25]): 0 | Plant response rating, Goosegrass (goosegrass [15]; [26]): 30 | Kochia plant response rating (kochia [16]; [25]): 60 | Plant response rating, Kochia (kochia [16]; [26]): 90 | Oat, Wild plant response rating (oat, wild [17]; [25]): 20 | Plant response rating, Oat, Wild (oat, wild [17]; [26]): 30 | Pigweed, Palmer plant response rating (pigweed, palmer [18]; [25]): 70 | Plant response rating, Pigweed, Palmer (pigweed, palmer [18]; [26]): 80 | Ragweed plant response rating (ragweed [19]; [25]): 0 | Plant response rating, Ragweed (ragweed [19]; [26]): 20 | Ryegrass, Italian plant response rating (ryegrass, Italian [20]; [25]): 10 | Plant response rating, Ryegrass, Italian (ryegrass, Italian [20]; [26]): 70 | Soybean plant response rating (soybean [21]; [25]): 100 | Plant response rating, Soybean (soybean [21]; [26]): 100 | Wheat plant response rating (wheat [22]; [25]): 0 | Plant response rating, Wheat (wheat [22]; [26]): 10 | Horseweed plant response rating (horseweed; [25]): 20 | Plant response rating, Horseweed (horseweed; [26]): 50 | Plant response rating, Barnyardgrass (barnyardgrass): 0 | Plant response rating, Ducksalad (ducksalad): 0 | Plant response rating, Rice (rice): 0 | Plant response rating, Sedge, Umbrella (sedge, umbrella): 0

Cc1ccc(-n2cnc(Br)n2)cc1C(=O)N1C[C@H](C)Oc2c(Cl)cccc21 [Compound 62]
Plant response rating, Blackgrass (blackgrass [1]; 31 g ai/ha, 0 to 100 scale): 0 | Plant response rating, Blackgrass (blackgrass [1]; [23]): 40 | Plant response rating, Corn (corn [2]; 31 g ai/ha, 0 to 100 scale): 0 | Plant response rating, Corn (corn [2]; [23]): 0 | Plant response rating, Foxtail, Giant (foxtail, giant [3]; 31 g ai/ha, 0 to 100 scale): 20 | Plant response rating, Foxtail, Giant (foxtail, giant [3]; [23]): 90 | Plant response rating, Goosegrass (goosegrass [4]; 31 g ai/ha, 0 to 100 scale): 70 | Plant response rating, Goosegrass (goosegrass [4]; [23]): 100 | Plant response rating, Kochia (kochia [5]; 31 g ai/ha, 0 to 100 scale): 10 | Plant response rating, Kochia (kochia [5]; [23]): 80 | Plant response rating, Oat, Wild (oat, wild [6]; 31 g ai/ha, 0 to 100 scale): 0 | Plant response rating, Oat, Wild (oat, wild [6]; [23]): 0 | Plant response rating, Pigweed, Palmer (pigweed, palmer [7]; 31 g ai/ha, 0 to 100 scale): 70 | Plant response rating, Pigweed, Palmer (pigweed, palmer [7]; [23]): 90 | Plant response rating, Ragweed (ragweed [8]; 31 g ai/ha, 0 to 100 scale): 0 | Plant response rating, Ragweed (ragweed [8]; [23]): 20 | Plant response rating, Ryegrass, Italian (ryegrass, Italian [9]; 31 g ai/ha, 0 to 100 scale): 0 | Plant response rating, Ryegrass, Italian (ryegrass, Italian [9]; [23]): 70 | Plant response rating, Soybean (soybean [10]; 31 g ai/ha, 0 to 100 scale): 0 | Plant response rating, Soybean (soybean [10]; [23]): 0 | Plant response rating, Wheat (wheat [11]; 31 g ai/ha, 0 to 100 scale): 0 | Plant response rating, Wheat (wheat [11]; [23]): 0 | Blackgrass plant response rating (blackgrass [12]; [27]): 40 | Plant response rating, Blackgrass (blackgrass [12]; [28]): 50 | Corn plant response rating (corn [13]; [27]): 10 | Plant response rating, Corn (corn [13]; [28]): 10 | Foxtail, Giant plant response rating (foxtail, giant [14]; [27]): 20 | Plant response rating, Foxtail, Giant (foxtail, giant [14]; [28]): 90 | Goosegrass plant response rating (goosegrass [15]; [27]): 10 | Plant response rating, Goosegrass (goosegrass [15]; [28]): 20 | Kochia plant response rating (kochia [16]; [27]): 80 | Plant response rating, Kochia (kochia [16]; [28]): 90 | Oat, Wild plant response rating (oat, wild [17]; [27]): 0 | Plant response rating, Oat, Wild (oat, wild [17]; [28]): 20 | Pigweed, Palmer plant response rating (pigweed, palmer [18]; [27]): 40 | Plant response rating, Pigweed, Palmer (pigweed, palmer [18]; [28]): 50 | Ragweed plant response rating (ragweed [19]; [27]): 10 | Plant response rating, Ragweed (ragweed [19]; [28]): 20 | Ryegrass, Italian plant response rating (ryegrass, Italian [20]; [27]): 0 | Plant response rating, Ryegrass, Italian (ryegrass, Italian [20]; [28]): 40 | Soybean plant response rating (soybean [21]; [27]): 100 | Plant response rating, Soybean (soybean [21]; [28]): 100 | Wheat plant response rating (wheat [22]; [27]): 10 | Plant response rating, Wheat (wheat [22]; [28]): 10 | Horseweed plant response rating (horseweed; [27]): 0 | Plant response rating, Horseweed (horseweed; [28]): 0 | Plant response rating, Barnyardgrass (barnyardgrass): 0 | Plant response rating, Ducksalad (ducksalad): 0 | Plant response rating, Rice (rice): 0 | Plant response rating, Sedge, Umbrella (sedge, umbrella): 0
